According to patent publication US5840721A, “Imidazole derivatives as MDR modulators” (Ontogen Corporation, priority 1997, dated 1998):

tested on: CEM/VLB1000 cell line; assay: Cytotoxicity potentiation: enhancement of vinblastine cytotoxicity in MDR cell line (alamar blue); type: cell-based, human; settings: Homo sapiens, midpoint of minimum and maximum cytotoxicity induced by 3-5 μg/mL vinblastine and compound, 48 hours incubation, alamar blue 24 hours, read-out: Cytotocicity Potentiation (EC50)
Protocol: Multidrug-resistant cell lines are easily obtainable for in vitro determination of drug sensitization by compounds of the present invention. In vitro potentiation of antineoplastic cytotoxicity by the imidazole derivatives of the present invention was measured in both CEM/VLB1000 and SK/VLB1000 cell lines. The multidrug resistant cell lines were obtained from Dr. Victor Ling, Ontario Cancer Institute, Toronto, Canada. The CEM/VLB 1000 cell line was maintained as a suspension in minimum essential medium supplemented with 10% fetal bovine serum in a humidied atmosphere of 95% air and 5% CO2 while the SK/VLB 1000 cell line was maintained as adherent cells using the identical medium conditions as the CEM cells. The CEM/VLB 1000 cells were seeded at a density of 5×10^4 cells/well in a 96 well microtiter plate while the SK/VLB 1000 cell line was seeded at a density of 2,500 cells/well after trypsinization.

SMILES	EC50 [nM]
COC(=O)[C@@H]1C[C@H]1c1ccc(-c2nc(-c3ccc(N(C)C)cc3)c(-c3ccc(N(C)C)cc3)[nH]2)cc1 (relative stereo) [Example 101]	200
CN(C)c1ccc(-c2nc(-c3ccc(/C=C/c4nc5ccccc5o4)cc3)[nH]c2-c2ccc(N(C)C)cc2)cc1 [Example 56, 2-[trans-2-(2-benzoxazolyl)ethenylphenyl]-4,5-bis (4-N,N-dimethylaminophenyl) imidazole]	550
CNc1ccc(-c2[nH]c(-c3ccc(/C=C/c4nc5ccccc5o4)cc3)nc2-c2ccc(N(C)C)cc2)cc1 [Example 57, 2-[trans-2-(2-benzoxazolyl)ethenylphenyl]-4-(4-N,N-dimethylaminophenyl)-5-(4-N-methylaminophenyl) imidazole]	210
CCN(CC)c1ccc(-c2nc(-c3ccc(/C=C/c4nc5ccccc5o4)cc3)[nH]c2-c2ccc(NC)cc2)cc1 [Example 58, 2-[trans-2-(2-benzoxazolyl)ethenylphenyl]-4-(4-N,N-diethylaminophenyl)-5-(4-N-methylaminophenyl) imidazole]	470
CNc1ccc(-c2nc(-c3ccc(/C=C/c4nc5ccccc5o4)cc3)[nH]c2-c2ccc(N3CCCC3)cc2)cc1 [Example 60, 2-[trans-2-(2-benzoxazolyl)ethenylphenyl]-4-(4-N-methylaminophenyl)-5-(4-pyrrolidinophenyl) imidazole]	450
COCCNc1ccc(-c2[nH]c(-c3ccc(/C=C/c4nc5ccccc5o4)cc3)nc2-c2ccc(N(C)C)cc2)cc1 [Example 61, 2-[trans-2-(2-benzoxazolyl)ethenylphenyl]-4-(4-N,N-dimethylaminophenyl)-5-[4-(2-methoxyethylamino)phenyl] imidazole]	160
CN(C)c1ccc(-c2nc(-c3ccc(/C=C/c4nc5ccccc5s4)cc3)[nH]c2-c2ccc(N(C)C)cc2)cc1 [Example 62, 2-[trans-2-(2-benzthiazolyl)ethenylphenyl]-4,5-bis (4-N,N-dimethylaminophenyl) imidazole]	1030
CNc1ccc(-c2[nH]c(-c3ccc(/C=C/c4nc5ccccc5s4)cc3)nc2-c2ccc(N(C)C)cc2)cc1 [Example 63, 2-[trans-2-(2-benzthiazolyl)ethenylphenyl]-4-(4-N-dimethylaminophenyl)-5-(4-N-methylaminophenyl) imidazole]	320
CN(C)c1ccc(-c2nc(-c3ccc(/C=C/C#N)cc3)[nH]c2-c2ccc(N(C)C)cc2)cc1 [Example 64, 2-[trans-2-(2-cyano)ethenylphenyl]-4,5-(4-N,N-dimethylaminophenyl) imidazole]	550
COCCNc1ccc(-c2[nH]c(-c3ccc(/C=C/C#N)cc3)nc2-c2ccc(N(C)C)cc2)cc1 [Example 65]	250
C=CCN(CC=C)c1ccc(-c2nc(-c3ccc(/C=C/C(=O)OC)cc3)[nH]c2-c2ccc(F)cc2)cc1 [Example 66, 2-(trans-2-methoxycarbonyl-ethenylphenyl)-4-(4-N,N-diallylaminophenyl)5-(4-fluoro-phenyl) imidazole]	850
CNc1ccc(-c2nc(-c3ccc(/C=C/C(=O)OC)cc3)[nH]c2-c2ccc(N3CCCC3)cc2)cc1 [Example 67, 2-(trans-2-methoxycarbonyl-ethenylphenyl)-4-(4-N-methylaminophenyl)5-(4-pyrrolidinophenyl) imidazole]	98
CNc1ccc(-c2nc(-c3ccc(/C=C/C(=O)OC)cc3)[nH]c2-c2ccc(N3CCCCC3)cc2)cc1 [Example 68, 2-(trans-2-methoxycarbonyl-ethenylphenyl) -4-(4-N-methylaminophenyl)5-(4-piperidinophenyl) imidazole]	390
CNc1ccc(-c2[nH]c(-c3ccc(/C=C/C(=O)OC)cc3)nc2-c2ccc(N(CCOC)CCOC)cc2)cc1 [Example 69, 2-(trans-2-methoxycarbonyl-ethenylphenyl)-4-[4-N,N-di(2methoxyethyl)aminophenyl]-5-(4-N-methylaminophenyl) imidazole]	330
CNc1ccc(-c2[nH]c(-c3ccc(/C=C/C(=O)OC)cc3)nc2-c2ccc(-n3ccnc3)cc2)cc1 [Example 70, 2-(trans-2-methoxycarbonyl-ethenylphenyl)-4-[4-(1-imidazolyl)phenyl]-5(4-N-methylaminophenyl) imidazole]	500
COC(=O)/C=C/c1ccc(-c2nc(-c3ccc(N4CCOCC4)cc3)c(-c3ccc(N4CCOCC4)cc3)[nH]2)cc1 [Example 71, 2-(trans-2-methoxycarbonyl-ethenylphenyl)-4,5-bis (4-N-morpholinophenyl) imidazole]	370
COC(=O)/C=C/c1ccc(-c2nc(-c3ccc(N(C)C)cc3)c(-c3ccc(N4CCOCC4)cc3)[nH]2)cc1 [Example 72, 2-(trans-2-methoxycarbonyl-ethenylphenyl)-4-(4-N-dimethylaminophenyl)-5-(4-N-morpholinophenyl) imidazole]	320
CNc1ccc(-c2nc(-c3ccc(/C=C/C(=O)OC)cc3)[nH]c2-c2ccc(N3CCOCC3)cc2)cc1 [Example 73, 2-(trans-2-methoxycarbonyl-ethenylphenyl)-4-(4-N-methylaminophenyl)5-(4-N-morpholinophenyl) imidazole]	340
CCOC/C=C/c1ccc(-c2nc(-c3ccc(N(C)C)cc3)c(-c3ccc(NC)cc3)[nH]2)cc1 [Example 76, 2-[4-(3-ethoxy-trans-1-propen-1-yl)phenyl]-4-(4-N-dimethylaminophenyl)-5-(4-N-methylaminophenyl) imnidazole]	110
CN(C)C/C=C/c1ccc(-c2nc(-c3ccc(N(C)C)cc3)c(-c3ccc(N(C)C)cc3)[nH]2)cc1 [Example 83, 2-[4-(3-N,N-dimethylamino-trans-1-propen-1-yl)phenyl]-4,5-bis (4-N,N-dimethylaminophenyl) imidazole]	1300
COCCOC/C=C/c1ccc(-c2nc(-c3ccc(N(C)C)cc3)c(-c3ccc(N(C)C)cc3)[nH]2)cc1 [Example 84, 2-{4-[3-(2-methoxy-ethoxy)-trans-1-propen-1-yl]phenyl}-4,5-bis (4-N,N-dimethylaminophenyl) imidazole]	90
CCCCOC/C=C/c1ccc(-c2nc(-c3ccc(N(C)C)cc3)c(-c3ccc(N(C)C)cc3)[nH]2)cc1 [Example 85, 2-[4-(3-butoxy-trans-1-propen-1-yl)phenyl]-4,5-bis (4-N,N-dimethylaminophenyl) imidazole]	110
CCOC/C=C/c1ccc(-c2nc(-c3ccc(N(CC)CC)cc3)c(-c3ccc(N(CC)CC)cc3)[nH]2)cc1 [Example 86, 2-[4-(3-ethoxy-trans-1-propen-1-yl)phenyl]-4,5-bis (4-N,N-diethylaminophenyl) imidazole]	260
CCOC/C=C/c1ccc(-c2nc(-c3ccc(N(CC)CC)cc3)c(-c3ccc(NC)cc3)[nH]2)cc1 [Example 87, 2-[4-(3-ethoxy-trans-1-propen-1-yl)phenyl]-4-(4-N,N-diethylaminophenyl)5-(4-N-methylaminophenyl) imidazole]	60
COC/C=C/c1ccc(-c2nc(-c3ccc(N4CCCC4)cc3)c(-c3ccc(N4CCCC4)cc3)[nH]2)cc1 [Example 88, 2-[4-(3-methoxy-trans-1-propen-1-yl)phenyl]-4,5-bis (4-pyrrolidinophenyl) imidazole]	260
CCOC/C=C/c1ccc(-c2nc(-c3ccc(N4CCCC4)cc3)c(-c3ccc(N4CCCC4)cc3)[nH]2)cc1 [Example 89, 2-[4-(3-ethoxy-trans-1-propen-1-yl)phenyl]-4,5-bis (4-pyrrolidinophenyl) imidazole]	240
CCOC/C=C/c1ccc(-c2nc(-c3ccc(N(C)C)cc3)c(-c3ccc(N4CCCC4)cc3)[nH]2)cc1 [Example 90, 2-[4-(3-ethoxy-trans-1-propen-1-yl)phenyl]-4-(4-N-dimethylaminophenyl)-5-(4-pyrrolidinophenyl) imidazole]	120
CCOC/C=C/c1ccc(-c2nc(-c3ccc(NC)cc3)c(-c3ccc(N4CCCC4)cc3)[nH]2)cc1 [Example 91, 2-[4-(3-ethoxy-trans-1-propen-1-yl)phenyl]-4-(4-N-methylaminophenyl)-5(4-pyrrolidinophenyl) imidazole]	110
CCOC/C=C/c1ccc(-c2nc(-c3ccc(N4CCOCC4)cc3)c(-c3ccc(N4CCOCC4)cc3)[nH]2)cc1 [Example 92, 2-[4-(3-ethoxy-trans-1-propen-1-yl)phenyl]-4,5-bis (4-N-morpholinophenyl) imidazole]	220

same assay, conditions: midpoint of minimum and maximum cytotoxicity induced by 3-5 μg/mL vinblastine and compound, 48 hours incubation, alamar blue 24 hours, read-out: Cytotocicity Potentiation (EC50)

SMILES	EC50 [nM]
CNc1ccc(-c2[nH]c(-c3ccc(/C=C/COc4ccccc4)cc3)nc2-c2ccc(N(C)C)cc2)cc1 [Example 78, 2-[4-(3-phenoxy-trans-1-propen-1-yl)phenyl]-4-(4-N-dimethylaminophenyl)-5-(4-N-methylaminopheny) imidazole]	450
CNc1ccc(-c2[nH]c(-c3ccc(/C=C/COc4ccc(OC)c(OC)c4)cc3)nc2-c2ccc(N(C)C)cc2)cc1 [Example 79, 2-{4-[3-(3,4-dimethoxy-phenoxy)-trans-1-propen-1-yl]phenyl}-4-(4-N-dimethylaminophenyl)-5-(4-N-methylaminopheny) imidazole]	1210
CCN(CC)C/C=C/c1ccc(-c2nc(-c3ccc(N(C)C)cc3)c(-c3ccc(N(C)C)cc3)[nH]2)cc1 [Example 80, 2-[4-(3-N,N-diethylamino-trans-1-propen-1-yl)phenyl]-4,5-bis (4-N,N-dimethylaminophenyl) imidazole]	880
